System: hepatic gene expression
Assay: Hepatic gene expression profiling of streptozotocin-induced diabetes (Affymetrix Mu11KsubA/Mu11KsubB arrays)
Type: in vivo, Swiss-Webster mice
Conditions: liver, STZ vs control mice
Experimental: Mice and treatment. Female, 8-month old Swiss-Webster mice were purchased from Jackson Laboratories. Diabetes was induced by three weekly intraperitoneal injections of streptozotocin (STZ; 10 mg/100 g body weight) in 50 mM sodium citrate, pH 4.5. […] Only mice with blood glucose levels higher than 3 mg/ml were used. Mice injected with equivalent volumes of sodium citrate at the same times served as controls. Mice were sacrificed one week after the last injection. Mice were fasted for 24 h before sacrifice.
Measurement of Specific mRNA Levels. Total liver RNA was isolated from frozen tissue fragments using TRI Reagent (Molecular Research Center, Inc., Cincinnati, Ohio) as described previously (Cao et al., Proc. Natl. Acad. Sci. U.S. A. 98:10630-10635 (2001)). Specific mRNA levels were measured using the Affymetrix Mu11KsubA and Mu11KsubB high-density oligonucleotide arrays using standard Affymetrix protocols as described (Cao et al., Proc. Natl. Acad. Sci. U.S. A. 98:10630-10635 (2001)). Briefly, cDNA was prepared from total RNA using Superscript Choice System with a primer containing oligo(dT) and the T7 RNA polymerase promoter sequence. Biotinylated cRNA was synthesized from purified cDNA using the Enzo BioArray High Yield RNA Transcript Labeling Kit (Enzo Biochem), and CRNA purified using RNeasy mini columns (Qiagen, Chatsworth, Calif.). An equal amount of cRNA from each animal was separately hybridized to Mu11KsubA and Mu11ksubB high-density oligonucleotide arrays. The arrays were hybridized for 16 h at 45° C. After hybridization, arrays were washed, stained with streptavidin-phycoerythrin, and scanned using a Hewlett-Packard GeneArray Scanner.
Data Analysis and Statistics. Image analysis and data quantification were performed using the Affymetrix Microarray Suite 5.0. Affymetrix Mu11KsubA and Mu11KsubB arrays contain targets for more than 11,000 mouse genes and expressed sequence tags (ESTs). Each gene or EST is represented on the array by 20 perfectly matched (PM) oligonucleotides and 20 mismatched (MM) control probes that contain a single central-base mismatch. The signal intensities of PM and MM were used to calculate a discrimination score, R, which is equal to (PM−MM)/(PM+MM). A detection algorithm utilized R to generate a detection p-value and assign a Present, Marginal or Absent call using the Wilcoxon signed rank test (Wilcoxon F., Biometrics 1:80-83 (1945); Affymetrix, Inc., New Statistical Algorithms for Monitoring Gene Expression on GeneChip Probe Arrays, Technical Notes 1, Part No. 701097 Rev. 1 (2001)). Only genes that were “Present” in at least 2 out of 3 arrays per experimental group were considered for further analysis. A signal algorithm calculated the relative level of expression of each transcript using the One-Step Tukey's Biweight Estimate (Affymetrix, Inc., New Statistical Algorithms for Monitoring Gene Expression on GeneChip Probe Arrays, Technical Notes 1, Part No. 701097 Rev. 1 (2001)). This procedure generates a robust weighted mean that is relatively insensitive to outliers, even when they are extreme. Genes with a signal intensity lower than the mean array signal intensity in 2 or more of the 3 arrays in either experimental group were eliminated from the analysis. All arrays were scaled to a target intensity of 2500. To identify differentially expressed genes, each of the 3 control samples was compared with each of the 3 STZ-treated samples, resulting in 9 pairwise comparisons. […] Difference values (PM-MM) between the control and STZ-treated arrays were used to generate a one-sided p-value for each set of probes. Default boundaries between significant and not significant p-values were used (Affymetrix, Inc., New Statistical Algorithms for Monitoring Gene Expression on GeneChip Probe Arrays, Technical Notes 1, Part No. 701097 Rev. 1 (2001)). […]

CN(N=O)C(=O)N[C@H]1C(O)O[C@H](CO)[C@@H](O)[C@@H]1O (mixture of isomers) [STZ, streptozotocin]
FC RIKEN cDNA 1110002E23 gene (GenBank AA000467): 2.0 fold
FC Proteasome (prosome, macropain) subunit, alpha type 4 (Psma4) mRNA (GenBank AA008321): 2.0 fold
FC X-box binding protein 1 (Xbp1) mRNA (GenBank AA016424): 2.1 fold
FC Cysteine-rich protein 2 (Csrp2) mRNA (GenBank AA028770): 2.0 fold
FC Similar to eukaryotic translation initiation factor 4 gamma, 1 (0610008L05Rik) (GenBank AA038437): 2.6 fold
FC Bifunctional aminoacyl-tRNA synthetase mRNA (GenBank AA048927): 3.6 fold
FC RIKIEN cDNA 1810034D23 gene (GenBank AA066610): 1.9 fold
FC CathepsinL (Ctsl) mRNA (GenBank AA096813): 2.5 fold
FC Poly A binding protein, cytoplasmic 1 (Pabpc1) mRNA (GenBank AA106783): 2.0 fold
FC Phosphoenolpyruvate carboxykinase 1, cytosolic (Pck1) mRNA (GenBank AA110781): 3.6 fold
FC mp72b03.rl Soares thymus cDNA clone IMAGE:574733, similar to cyclophilin (GenBank AA124572): 1.9 fold
FC Stearoyl-Coenzyme A desaturase 1 (Sed1) mRNA (GenBank AA137436): −14.0 fold
FC Cytochrome P450, 2c40 (Cyp2c40) mRNA (GenBank AA137659): −2.5 fold
FC Heat shock protein, 74 kDa, A (Hspa9A) mRNA (GenBank AA138378): 3.5 fold
FC Protease (prosome, macropain) 28 subunit, alpha (Psme1) mRNA (GenBank AA165782): 1.9 fold
FC Carbon catabolite repression 4 homolog (S. cerevisiae) (Ccr4) mRNA (GenBank AA172909): 1.8 fold
FC Erythroid differentiation regulator (Edr) mRNA (GenBank AA174883): 1.8 fold
FC Nuclear receptor coactivator 4 (Ncoa4) mRNA (GenBank AA217659): 1.8 fold
FC Argininosuccinate lyase (As1) mRNA (GenBank AA237297): 2.0 fold
FC Expressed sequence A1266885 (GenBank AA250708): −2.5 fold
FC RIKEN cDNA 2310009NO5 gene (2310009N05Rik) (GenBank AA260798): 1.9 fold
FC Isopentenyl-diphosphate delta-isomerase mRNA (GenBank AA267683): −2.0 fold
FC Activating transcription factor 5 (Atf5) mRNA (GenBank AA270796): 2.1 fold
FC Cellular repressor of E1A-stimulated genes (Creg) mRNA (GenBank AA271265): 2.0 fold
FC Splicing factor 3b, subunit 1, 155 kDa (Sf3b1) mRNA (GenBank AA277153): 1.8 fold
FC NADH dehydrogenase (ubiquinone) 1 beta subcomplex 6 mRNA (GenBank AA277720): 2.5 fold
FC vb90b12.rl Soares mouse 3NbMS cDNA clone IMAGE:764255 (GenBank AA285530): 1.9 fold
FC Ribonuclease, Rnase A family 4 (Rnase4) mRNA (GenBank AA289858): −4.6 fold
FC Splicing factor, arginine/serine-rich 5 (SRp40, HRS) (Sfrs5) mRNA (GenBank AA388848): 1.9 fold
FC Nuclear receptor coactivator 3 (Ncoa3) mRNA (GenBank AA390043): 2.1 fold
FC Sirtuin 2 (Sirt2) mRNA (GenBank AA472476): −2.0 fold
FC Retinal taurine transporter; solute carrier family 6, member 6 (Slc6a6) mRNA (GenBank AA472795): 1.9 fold
FC RAB9, member RAS oncogene family (Rab9) mRNA (GenBank AA518955): 1.9 fold
FC RIKEN cDNA 1810020N21 gene (GenBank AA538556): 2.0 fold
FC Expressed sequence AA960392 (GenBank AA592283): 1.8 fold
FC Ring finger protein 4 (Rnf4) mRNA (GenBank AA600461): 2.1 fold
FC Interferon alpha responsive gene, 15 kDa (Ifrg15-pending) mRNA (GenBank AA608036): 1.9 fold
FC RIKEN cDNA 2700059D21 gene (GenBank AA655730): 1.8 fold
FC vq87g01.r1 Knowles Solter mouse blastocyst B3 cDNA clone IMAGE: 1109328 (GenBank AA666984): 2.0 fold
FC C77421 Mouse 3.5-dpc blastocyst cDNA clone J0030G04, similar to Mouse B10.VL30LTR gene (GenBank C77421): 2.5 fold
FC Expressed sequence C79645 (GenBank C79645): 1.8 fold
FC mc25d02.rl Soares mouse cDNA clone IMAGE:349539 (GenBank W3021 1): 2.1 fold
FC ATP synthase, H+ transporting, mitochondrial F0 complex, subunit b, isoform 1 (Atp5f1) mRNA (GenBank W08392): 1.9 fold
FC Destrin (Dsn) mRNA (GenBank W08453): 1.9 fold
